From patent US20250222044A1, “LIMOSILACTOBACILLUS REUTERI GOLDGUT-LR99 AND APPLICATION THEREOF” (priority 2024, published 2025)

Each compound was assayed on Limosilactobacillus reuteri GOLDGUT-LR99 (assay: Antibiotic sensitivity, K-B method (Kirby-Bauer method)). Settings: susceptibility of the strain to the antibiotic.
Type: cell-based
Parameters: key to Antibiotic susceptibility test result: R represents resistance; S represents sensitivity
Procedure: Antibiotic sensitivity of Limosilactobacillus reuteri GOLDGUT-LR99 was determined using the K-B method (Kirby-Bauer method).

Row | Compound | Antibiotic susceptibility test result
1 | O=C(N[C@H](CO)[C@H](O)c1ccc([N+](=O)[O-])cc1)C(Cl)Cl [Chloramphenicol] | S
2 | O=C(O)c1cn(C2CC2)c2cc(N3CCNCC3)c(F)cc2c1=O [Ciprofloxacin] | R
3 | CCC[C@@H]1C[C@@H](C(=O)N[C@@H]([C@H]2O[C@H](SC)[C@H](O)[C@@H](O)[C@H]2O)[C@H](C)Cl)N(C)C1 [Clindamycin] | R
4 | C[C@H]1c2cccc(O)c2C(=O)C2=C(O)[C@]3(O)C(=O)C(C(N)=O)=C(O)[C@@H](N(C)C)[C@@H]3[C@@H](O)[C@@H]21 [Doxycycline] | S
5 | CC[C@H]1OC(=O)[C@H](C)[C@@H](O[C@H]2C[C@@](C)(OC)[C@@H](O)[C@H](C)O2)[C@H](C)[C@@H](O[C@@H]2O[C@H](C)C[C@H](N(C)C)[C@H]2O)[C@](C)(O)C[C@@H](C)C(=O)[C@H](C)[C@@H](O)[C@]1(C)O [Erythromycin] | R
6 | O=C1OCCN1/N=C/c1ccc([N+](=O)[O-])o1 [Furazolidone] | S
7 | NC[C@H]1O[C@H](O[C@H]2[C@H](O)[C@@H](O[C@H]3O[C@H](CO)[C@@H](O)[C@H](N)[C@H]3O)[C@H](N)C[C@@H]2N)[C@H](O)[C@@H](O)[C@@H]1O [Kanamycin] | S
8 | CCC(=O)O[C@@H]1CC(=O)O[C@H](C)C/C=C/C=C/[C@H](O)[C@H](C)C[C@H](CC=O)[C@H](O[C@@H]2O[C@H](C)[C@@H](O[C@H]3C[C@@](C)(O)[C@@H](OC(=O)CC)[C@H](C)O3)[C@H](N(C)C)[C@H]2O)[C@H]1OC [Midecamycin] | R
9 | CN(C)c1ccc(O)c2c1C[C@H]1C[C@H]3[C@H](N(C)C)C(O)=C(C(N)=O)C(=O)[C@@]3(O)C(O)=C1C2=O [Minocycline] | S
10 | CCn1cc(C(=O)O)c(=O)c2cc(F)c(N3CCNCC3)cc21 [Norfloxacin] | R
11 | CC1COc2c(N3CCN(C)CC3)c(F)cc3c(=O)c(C(=O)O)cn1c23 (stereo not shown) [Ofloxacin] | R
12 | CCN1CCN(C(=O)N[C@@H](C(=O)N[C@@H]2C(=O)N3[C@@H]2SC(C)(C)[C@@H]3C(=O)O)c2ccccc2)C(=O)C1=O [Piperacillin] | S
13 | Cc1cc(NS(=O)(=O)c2ccc(N)cc2)no1 [Sulfamethoxazole, Compound Sulfamethoxazole] | R
14 | CN(C)[C@@H]1C(O)=C(C(N)=O)C(=O)[C@@]2(O)C(O)=C3C(=O)c4c(O)cccc4[C@@](C)(O)[C@H]3C[C@@H]12 [Tetracycline] | S
15 | CN[C@H](CC(C)C)C(=O)N[C@H]1C(=O)N[C@@H](CC(N)=O)C(=O)N[C@H]2C(=O)N[C@H]3C(=O)N[C@H](C(=O)N[C@H](C(=O)O)c4cc(O)cc(O)c4-c4cc3ccc4O)[C@H](O)c3ccc(c(Cl)c3)Oc3cc2cc(c3O[C@@H]2O[C@H](CO)[C@@H](O)[C@H](O)[C@H]2O[C@H]2C[C@](C)(N)[C@H](O)[C@H](C)O2)Oc2ccc(cc2Cl)[C@H]1O [Vancomycin] | R
16 | Gentamicin | S
17 | Neomycin | S
18 | Penicillin | S
19 | Polymyxin | R
